According to patent US20150368617A1, “METHOD FOR FORMING ENDOTHELIAL CELLS” (Korea Advanced Institute of Science and Technology (KAIST), priority 2012, published 2015):

Test system: ICAM2+ ECs
Assay: Expansion of purified ICAM2+ ECs for 2 days in 2D Matrigel system
Format: cell-based, mouse
Protocol: FIGS. 14A-14G. ROCK suppression continuously promotes the expansion of ECs. (FIG. 14A) ICAM2+ ECs were further incubated with PBS (Control), Y27632 (10┌ M), VEGF-A (50 ng/ml; VA) or Y27632 (10┌ M) plus VEGF-A (50 ng/ml) for 2 days, and analyses were performed at day 8.5. (FIG. 14B) Immunofluorescence images showing CD144+ EC colonies, ┌ SMA+MCs, and DAPI+ nuclei. Scale bars represent 100┌ m. (FIG. 14C) Representative FACS analysis of CD31+/CD144+ ECs. (FIG. 14D) % of CD31+/CD144+ EC population. Each group, n=3. *p<0.01 versus Control. (FIG. 14E) Relative cell number of ICAM2+ ECs. Each group, n=3. *p<0.01 versus Control; ^#p<0.01 versus VEGF-A. (FIG. 14F) Relative population of CD31+/CD144+ ECs. Population of CD31+/CD144+ ECs grown without VEGF-A and Y27632 was regarded as 100%. Each group, n=3. *p<0.01 versus Control; ^#p<0.01 versus VEGF-A. (FIG. 14G) % of adherent ICAM2+ECs onto plate at 6 hrs. Each group, n=3. *p<0.05 versus VEGF-A.
E14tg2a ESC cell line was a generous gift from Dr. Jun K. Yamashita (Kyoto University), and R1 ESC cell line was purchased from American Type Cell Culture. Mouse iPSC derived from FVB strain was a generous gift from Drs. Hyun-Jai Cho and Hyo-Soo Kim (Seoul National University Hospital). […]

**Q.** Which “decrease of CD31+/CD144+ EC population from the initial population of ˜90%” value (day 8.5, agent alone, ˜30% without either agent) does the source give for `C[C@@H](N)[C@H]1CC[C@H](C(=O)Nc2ccncc2)CC1` [Y27632] here?
**A.** ~22%

**Q.** What about the “increase of total cell number” value (day 8.5, compared to Control without VEGF-A and Y27632) of the same molecule?
**A.** ~1.8 fold
